Earlier results on 1 compound are cited in patent US6447807B1, “Potassium (-)-hydroxycitric acid methods for pharmaceutical preparations for stable and controlled delivery” (priority 1999, dated 2002).

The conditions of this data set: single large oral dose, or two divided oral doses totaling one fourth of it; animals fed a high-sugar diet.

With `O=C(O)CC(O)(C(=O)O)C(O)C(=O)O` (single isomer, unassigned; (-)) [HCA, (−)-Hydroxycitric acid], the “reduction in food consumption” value is on record as no less than 10%.
